Experimental data: US8759400B2, “Histone deacetylase inhibitors for enhancing activity of antifungal agents” (MethylGene Inc., priority 2005, dated 2014)
Values after ≈ are worked out from the molar mass of the structure shown. Read-outs that look alike come from different tables or passages of the source.

Tested on: C. glabrata parent strain (ATCC 90030) and C. glabrata mutants
Assay: microbe, parasite or virus in culture
Format: cell-based
Settings: for MIC80: C. glabrata parent strain
[1] = C. glabrata (ATCC 90030) parent strain

O=C(Cc1ccc(CCCCc2ccccc2)cc1)NO [Cpd 4]
4-fold synergy Fluconazole/Cpd 4 [1]: 0.25–0.5 ug/ml Cpd 4 | 4-fold synergy Itraconazole/Cpd 4 [1]: 0.25–0.5 ug/ml Cpd 4 | Compound 4 concentration for synergy with azoles (itraconazole, fluconazole, all azole-resistant mutants tested): ≤ 4 µg/mL | Compound 4 concentration lowering itraconazole MIC80 (itraconazole-resistant mutants): ≤ 44 µg/mL

OC(Cn1cncn1)(Cn1cncn1)c1ccc(F)cc1F [fluconazole]
MIC80 (Nakaseomyces glabratus, ATCC90030, azole alone): 32 µg/mL (≈ 104 µM) | MIC (Nakaseomyces glabratus, ATCC90030, read-out: fluconazole MIC in presence of Compound 4, fluconazole-resistant mutants): 4 to 32 µg/mL | MIC (Nakaseomyces glabratus, ATCC90030, read-out: fluconazole MIC in presence of Compound 4, susceptible parent): 4 to 8 µg/mL | MIC80 (azole alone): 32 to 64 µg/mL
